Measurements from ChEMBL document CHEMBL1144034, “Synthesis and anti-protozoal activity of C2-substituted polyazamacrocycles” (Bioorg Med Chem Lett, 2008).

Test system: not listed separately
Assay: Cytotoxicity against HEK cells
Format: cell-based
Settings: Homo sapiens, HEK293

SMILES | EC50 [µM]
COc1ccc(C2CNCCNCCNCCN2)cc1 (configuration not stated) | > 200
Brc1ccc(C2CNCCNCCNCCN2)cc1 (configuration not stated) | > 200
FC(F)(F)c1cc(C2CNCCNCCNCCN2)cc(C(F)(F)F)c1 (configuration not stated) | 61
c1csc(C2CNCCNCCNCCN2)c1 (configuration not stated) | > 200
c1ccc(C2CNCCNCCNCCN2)cc1 (configuration not stated) | > 200
c1ccc2cc(C3CNCCNCCNCCN3)ccc2c1 (configuration not stated) | > 200
c1ccc2c(c1)Cc1cc(C3CNCCNCCNCCN3)ccc1-2 (configuration not stated) | 26
O=[N+]([O-])c1ccc(C2CNCCNCCNCCN2)cc1 (configuration not stated) | > 200
FC(F)(F)c1ccc(C2CNCCNCCNCCN2)cc1 (configuration not stated) | 73
CC(C)(C)C1CNCCNCCNCCN1 (configuration not stated) | > 200
C1CNCCNCCNCCN1 | 5
Clc1ccc(C2CNCCNCCNCCN2)cc1 (configuration not stated) | 181

Test system: not listed separately
Assay: Partition coefficient, log P of the compound
Format: physicochemical
Settings: octanol/water

SMILES | logP
COc1ccc(C2CNCCNCCNCCN2)cc1 (configuration not stated) | -0.1
Brc1ccc(C2CNCCNCCNCCN2)cc1 (configuration not stated) | 0.7
c1csc(C2CNCCNCCNCCN2)c1 (configuration not stated) | -0.4
c1ccc2c(c1)ccc1cc(C3CNCCNCCNCCN3)ccc12 (configuration not stated) | 2.2
FC(F)(F)c1ccc(C2CNCCNCCNCCN2)cc1 (configuration not stated) | 0.8
Clc1ccc(C2CNCCNCCNCCN2)cc1 (configuration not stated) | 0.8

Further lines, results first:

logP | SMILES
1.7 | FC(F)(F)c1cc(C2CNCCNCCNCCN2)cc(C(F)(F)F)c1 (configuration not stated)
-0.2 | c1ccc(C2CNCCNCCNCCN2)cc1 (configuration not stated)
1 | c1ccc2cc(C3CNCCNCCNCCN3)ccc2c1 (configuration not stated)
1.8 | c1ccc2c(c1)Cc1cc(C3CNCCNCCNCCN3)ccc1-2 (configuration not stated)
-0.4 | O=[N+]([O-])c1ccc(C2CNCCNCCNCCN2)cc1 (configuration not stated)
-0.1 | CC(C)(C)C1CNCCNCCNCCN1 (configuration not stated)
-1.8 | C1CNCCNCCNCCN1

Test system: Trypanosoma brucei
Assay: Antiprotozoal activity against Trypanosoma brucei by Alamar blue assay
Format: functional, organism-based
Settings: not given

SMILES | EC50 [µM]
COc1ccc(C2CNCCNCCNCCN2)cc1 (configuration not stated) | > 200
Brc1ccc(C2CNCCNCCNCCN2)cc1 (configuration not stated) | 21.8
c1csc(C2CNCCNCCNCCN2)c1 (configuration not stated) | 72.3
FC(F)(F)c1ccc(C2CNCCNCCNCCN2)cc1 (configuration not stated) | 6.8
Clc1ccc(C2CNCCNCCNCCN2)cc1 (configuration not stated) | 2.8

Now from value to molecule:

EC50 [µM] | SMILES
0.006 | N=C(N)c1ccc(OCCCCCOc2ccc(C(=N)N)cc2)cc1 [PENTAMIDINE]
6.8 | FC(F)(F)c1cc(C2CNCCNCCNCCN2)cc(C(F)(F)F)c1 (configuration not stated)
> 200 | c1ccc(C2CNCCNCCNCCN2)cc1 (configuration not stated)
6.9 | c1ccc2cc(C3CNCCNCCNCCN3)ccc2c1 (configuration not stated)
2.6 | c1ccc2c(c1)Cc1cc(C3CNCCNCCNCCN3)ccc1-2 (configuration not stated)
> 200 | O=[N+]([O-])c1ccc(C2CNCCNCCNCCN2)cc1 (configuration not stated)
133 | CC(C)(C)C1CNCCNCCNCCN1 (configuration not stated)
> 200 | C1CNCCNCCNCCN1

Test system: Plasmodium falciparum
Assay: Antiprotozoal activity against Plasmodium falciparum
Format: functional, organism-based
Settings: not given

SMILES | EC50 [µM]
COc1ccc(C2CNCCNCCNCCN2)cc1 (configuration not stated) | 26
Brc1ccc(C2CNCCNCCNCCN2)cc1 (configuration not stated) | 5.8
c1csc(C2CNCCNCCNCCN2)c1 (configuration not stated) | 46.7
c1ccc2c(c1)ccc1cc(C3CNCCNCCNCCN3)ccc12 (configuration not stated) | < 1.5
CCN(CC)CCCC(C)Nc1ccnc2cc(Cl)ccc12 (configuration not stated) [CHLOROQUINE] | 0.008
FC(F)(F)c1ccc(C2CNCCNCCNCCN2)cc1 (configuration not stated) | 5
Clc1ccc(C2CNCCNCCNCCN2)cc1 (configuration not stated) | 2.3

The next lines start with the values.

EC50 [µM] | SMILES
4.8 | FC(F)(F)c1cc(C2CNCCNCCNCCN2)cc(C(F)(F)F)c1 (configuration not stated)
26 | c1ccc(C2CNCCNCCNCCN2)cc1 (configuration not stated)
1.7 | c1ccc2cc(C3CNCCNCCNCCN3)ccc2c1 (configuration not stated)
1.3 | c1ccc2c(c1)Cc1cc(C3CNCCNCCNCCN3)ccc1-2 (configuration not stated)
13 | O=[N+]([O-])c1ccc(C2CNCCNCCNCCN2)cc1 (configuration not stated)
> 100 | CC(C)(C)C1CNCCNCCNCCN1 (configuration not stated)
> 100 | C1CNCCNCCNCCN1
